Measurements taken from US20080009418A1, “Selective Inhibitors” (Alchemia LTD., priority 2004, published 2008).

Assays:
Human opioid (ORL1) = molecular target: T1, Human opioid (ORL1) (Homo sapiens, UniProt P41146); assay: Radioligand binding, human opioid ORL1 membranes, FlashPlate, [125I]-Nociceptin; details: compound at 10 μM, [125I]-Nociceptin
T1 construct: purchased Perkin Elmer Biosignal
Outline: (§1)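 Cloned human receptor membranes were coated onto FlashPlate wells and incubated with radioligand and compound (added from a 0.5 mM DMSO daughter plate) for 1 hour at room temperature in the dark. Scintillation counting gave percent inhibition, with DMSO defining total and reference ligand defining non-specific binding.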

Human κ-Opioid (KOP) = molecular target: T2, Human κ-Opioid (KOP) (Homo sapiens, UniProt P41145); assay: Radioligand binding, human κ-opioid (KOP) membranes, filtration, [3H]-Diprenorphine; details: compound at 10 μM, [3H]-Diprenorphine
T2 construct: purchased Perkin Elmer Biosignal
Outline: (§2)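 Filtration binding on cloned human receptor membranes (1 Unit/well), [125I]-Substance P for NK1 and [3H]-Diprenorphine for KOP, 1 h at room temperature. Filters PEI-presoaked, washed with cold 50 mM Tris-HCl pH 7.4, counted by scintillation; percent inhibition calculated, reference ligand defining non-specific binding.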

Human Melanocortin (MC4) = molecular target: T3, Human Melanocortin (MC4) (Homo sapiens, UniProt P32245); assay: Radioligand binding, human melanocortin MC4 membranes, FlashPlate, [125I]-NDP-αMSH; details: compound at 10 μM, [125I]-NDP-αMSH
T3 construct: purchased Perkin Elmer Biosignal
Outline: as §1

[1] = molecular target: T4, Human melanin-concentrating hormone (MCH1) (Homo sapiens, UniProt Q99705); assay: Radioligand binding, human melanin-concentrating hormone MCH1 membranes, FlashPlate, [125I]-S36057; details: compound at 10 μM
T4 construct: purchased Perkin Elmer Biosignal
Outline: as §1

Human Melanocortin (MC3) = molecular target: T5, Human Melanocortin (MC3) (Homo sapiens, UniProt P41968); assay: Radioligand binding, human melanocortin MC3 membranes, FlashPlate, [125I]-NDP-αMSH; details: compound at 10 μM, [125I]-NDP-αMSH
T5 construct: purchased Perkin Elmer Biosignal
Outline: as §1

Human μ-opioid (MOP) = molecular target: T6, Human μ-opioid (MOP) (Homo sapiens, UniProt P35372); assay: Radioligand binding, human μ-opioid (MOP) membranes, FlashPlate, [3H]-Naloxone; details: compound at 10 μM, [3H]-Naloxone
T6 construct: purchased Perkin Elmer Biosignal
Outline: as §1

Human δ-opioid (DOP) = molecular target: T7, Human δ-opioid (DOP) (Homo sapiens, UniProt P41143); assay: Radioligand binding, human δ-opioid (DOP) membranes, FlashPlate, [3H]-Bremazocine; details: compound at 10 μM, [3H]-Bremazocine
T7 construct: purchased Perkin Elmer Biosignal
Outline: as §1

[2] = molecular target: T8, Human neuropeptide Y (NPY-Y1) (Homo sapiens, UniProt P25929); assay: Radioligand binding, human neuropeptide Y NPY-Y1 membranes, FlashPlate, [125I]-PYY; details: compound at 10 μM, [125I]-PYY
T8 construct: purchased Perkin Elmer Biosignal
T8 sequence (P25929 1-384): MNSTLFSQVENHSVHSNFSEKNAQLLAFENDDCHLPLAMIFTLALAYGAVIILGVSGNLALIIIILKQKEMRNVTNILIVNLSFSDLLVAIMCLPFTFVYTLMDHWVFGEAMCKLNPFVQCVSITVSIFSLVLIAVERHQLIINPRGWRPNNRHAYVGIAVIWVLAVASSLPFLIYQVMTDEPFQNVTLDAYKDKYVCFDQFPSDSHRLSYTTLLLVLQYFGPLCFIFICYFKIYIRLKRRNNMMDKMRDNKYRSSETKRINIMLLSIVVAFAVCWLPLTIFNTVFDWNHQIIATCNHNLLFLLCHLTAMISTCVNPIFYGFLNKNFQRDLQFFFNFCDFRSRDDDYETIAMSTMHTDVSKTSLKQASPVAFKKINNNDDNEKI
Outline: as §1

Human neurokinin (NK1) = molecular target: T9, Human neurokinin (NK1) (Homo sapiens, UniProt P25103); assay: Radioligand binding, human neurokinin NK1 membranes, filtration, [125I]-Substance P; details: compound at 10 μM, [125I]-Substance P
T9 construct: purchased Perkin Elmer Biosignal
Outline: as §2

Human melanocortin (MC5) = molecular target: T10, Human melanocortin (MC5) (Homo sapiens, UniProt P33032); assay: Radioligand binding, human melanocortin MC5 membranes, FlashPlate, [125I]-NDP-αMSH; details: compound at 10 μM, [125I]-NDP-αMSH
T10 construct: purchased Perkin Elmer Biosignal
Outline: as §1

Mouse urotensin (mUR2) = molecular target: T11, Mouse urotensin (mUR2) (Mus musculus, UniProt Q8VIH9); assay: Radioligand binding, mouse urotensin mUR2 membranes, FlashPlate, [125I]-Urotensin II; details: compound at 10 μM, [125I]-Urotensin II
T11 construct: purchased Perkin Elmer Biosignal
T11 sequence (Q8VIH9 1-385): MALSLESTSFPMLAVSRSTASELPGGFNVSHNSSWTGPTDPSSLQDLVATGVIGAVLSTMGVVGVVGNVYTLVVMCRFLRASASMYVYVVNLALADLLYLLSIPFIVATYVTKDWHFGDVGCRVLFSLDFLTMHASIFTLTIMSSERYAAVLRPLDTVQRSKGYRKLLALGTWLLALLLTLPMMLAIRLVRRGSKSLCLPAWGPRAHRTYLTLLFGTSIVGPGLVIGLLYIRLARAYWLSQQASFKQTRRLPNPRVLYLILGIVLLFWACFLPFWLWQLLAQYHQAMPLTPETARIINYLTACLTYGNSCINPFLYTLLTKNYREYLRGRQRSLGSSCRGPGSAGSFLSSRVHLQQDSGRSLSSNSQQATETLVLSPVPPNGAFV
Outline: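 Cloned mouse urotensin (mUR2) receptor membranes from Perkin Elmer Biosignal were immobilized in FlashPlate microplates using a proprietary coating. Each well got 19.5 μl buffer, then 0.5 μl of DMSO, reference ligand, or compound. Adding 5 μl of [125I]-Urotensin II, diluted to 5× final concentration in binding buffer, started binding. Plates were sealed with TopSeal-A and incubated 1 hour at room temperature in the dark. Wells were counted for 30 seconds each on a TopCount after a 60-second delay, and percentage inhibition was calculated.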

[3] = [125I]-S36057, human MCH1 membranes

T4 sequence (Q99705 whole entry): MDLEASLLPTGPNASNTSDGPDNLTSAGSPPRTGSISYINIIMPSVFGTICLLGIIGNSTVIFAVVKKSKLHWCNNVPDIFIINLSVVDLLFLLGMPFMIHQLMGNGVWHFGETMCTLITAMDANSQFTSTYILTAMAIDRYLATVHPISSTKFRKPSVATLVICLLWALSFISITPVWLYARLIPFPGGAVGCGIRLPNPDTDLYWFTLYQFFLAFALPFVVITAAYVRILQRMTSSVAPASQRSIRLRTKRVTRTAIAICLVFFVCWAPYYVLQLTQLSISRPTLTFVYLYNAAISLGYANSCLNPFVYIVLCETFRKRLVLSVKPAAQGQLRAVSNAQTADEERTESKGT
T1 sequence (P41146 whole entry): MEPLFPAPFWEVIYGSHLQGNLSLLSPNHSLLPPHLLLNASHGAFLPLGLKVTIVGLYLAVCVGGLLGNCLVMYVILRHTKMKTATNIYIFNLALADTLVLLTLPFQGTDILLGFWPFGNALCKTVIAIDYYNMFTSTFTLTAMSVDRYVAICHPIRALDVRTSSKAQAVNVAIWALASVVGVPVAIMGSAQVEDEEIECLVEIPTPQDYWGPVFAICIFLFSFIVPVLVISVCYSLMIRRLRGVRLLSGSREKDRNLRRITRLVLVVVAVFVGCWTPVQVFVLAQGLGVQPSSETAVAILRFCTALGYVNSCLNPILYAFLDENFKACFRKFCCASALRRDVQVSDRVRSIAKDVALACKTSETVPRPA
T6 sequence (P35372 whole entry): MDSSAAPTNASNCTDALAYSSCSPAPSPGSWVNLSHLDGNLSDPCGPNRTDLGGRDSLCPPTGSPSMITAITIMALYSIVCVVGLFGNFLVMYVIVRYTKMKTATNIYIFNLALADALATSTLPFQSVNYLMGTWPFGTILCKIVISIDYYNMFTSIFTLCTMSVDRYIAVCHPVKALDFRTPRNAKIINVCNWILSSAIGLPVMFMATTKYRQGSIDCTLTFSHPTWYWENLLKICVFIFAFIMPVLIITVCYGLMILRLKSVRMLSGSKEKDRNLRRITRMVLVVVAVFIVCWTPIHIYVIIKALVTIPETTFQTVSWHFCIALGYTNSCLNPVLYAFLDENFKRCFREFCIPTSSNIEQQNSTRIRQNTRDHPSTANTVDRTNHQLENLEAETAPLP
T10 sequence (P33032 whole entry): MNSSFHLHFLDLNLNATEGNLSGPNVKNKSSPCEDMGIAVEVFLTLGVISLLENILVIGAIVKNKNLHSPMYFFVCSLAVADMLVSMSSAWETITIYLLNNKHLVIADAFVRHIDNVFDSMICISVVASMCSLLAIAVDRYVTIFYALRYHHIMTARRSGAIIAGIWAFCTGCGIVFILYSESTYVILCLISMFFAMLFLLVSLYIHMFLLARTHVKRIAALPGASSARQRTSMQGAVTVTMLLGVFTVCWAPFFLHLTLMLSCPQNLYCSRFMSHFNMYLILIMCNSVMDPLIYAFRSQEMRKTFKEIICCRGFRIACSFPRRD
T9 sequence (P25103 whole entry): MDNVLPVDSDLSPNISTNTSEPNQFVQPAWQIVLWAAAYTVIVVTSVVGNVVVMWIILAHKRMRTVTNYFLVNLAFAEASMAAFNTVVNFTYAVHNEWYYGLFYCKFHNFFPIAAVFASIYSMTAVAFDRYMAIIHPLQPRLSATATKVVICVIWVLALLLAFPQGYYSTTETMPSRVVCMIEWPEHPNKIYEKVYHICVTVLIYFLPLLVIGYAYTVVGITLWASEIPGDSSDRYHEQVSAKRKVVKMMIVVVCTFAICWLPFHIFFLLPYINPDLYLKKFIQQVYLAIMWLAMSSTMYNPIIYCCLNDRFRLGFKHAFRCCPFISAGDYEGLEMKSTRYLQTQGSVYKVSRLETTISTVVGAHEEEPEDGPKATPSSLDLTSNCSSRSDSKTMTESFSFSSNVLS
T2 sequence (P41145 whole entry): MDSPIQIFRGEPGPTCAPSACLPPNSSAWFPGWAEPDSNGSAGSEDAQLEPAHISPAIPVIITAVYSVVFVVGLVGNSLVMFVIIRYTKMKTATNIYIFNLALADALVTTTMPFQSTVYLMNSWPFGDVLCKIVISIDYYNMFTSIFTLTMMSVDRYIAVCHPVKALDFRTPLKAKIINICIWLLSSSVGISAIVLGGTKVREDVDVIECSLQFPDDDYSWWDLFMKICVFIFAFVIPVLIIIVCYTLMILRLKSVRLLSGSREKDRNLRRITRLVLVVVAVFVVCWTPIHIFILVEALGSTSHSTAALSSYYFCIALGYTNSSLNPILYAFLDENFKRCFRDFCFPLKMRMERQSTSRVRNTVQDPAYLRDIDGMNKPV
T3 sequence (P32245 whole entry): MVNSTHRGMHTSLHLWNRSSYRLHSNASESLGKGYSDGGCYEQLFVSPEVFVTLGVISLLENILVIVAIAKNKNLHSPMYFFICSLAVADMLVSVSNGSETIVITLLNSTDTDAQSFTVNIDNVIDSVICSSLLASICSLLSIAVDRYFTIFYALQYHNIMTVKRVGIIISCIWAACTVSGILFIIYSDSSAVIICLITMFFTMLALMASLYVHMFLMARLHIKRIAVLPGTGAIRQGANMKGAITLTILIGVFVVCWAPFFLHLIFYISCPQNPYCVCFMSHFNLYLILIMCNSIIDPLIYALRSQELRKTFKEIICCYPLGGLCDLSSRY
T7 sequence (P41143 whole entry): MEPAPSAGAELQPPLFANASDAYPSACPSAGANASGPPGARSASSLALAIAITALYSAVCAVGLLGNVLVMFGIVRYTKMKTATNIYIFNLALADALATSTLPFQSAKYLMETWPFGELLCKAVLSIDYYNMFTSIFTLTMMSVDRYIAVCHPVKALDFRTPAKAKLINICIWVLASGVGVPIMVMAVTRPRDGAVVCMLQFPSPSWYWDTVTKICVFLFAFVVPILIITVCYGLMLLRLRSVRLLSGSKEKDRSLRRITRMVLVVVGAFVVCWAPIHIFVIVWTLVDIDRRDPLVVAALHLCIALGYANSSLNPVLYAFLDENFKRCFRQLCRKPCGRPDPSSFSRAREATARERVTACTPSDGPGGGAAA
T5 sequence (P41968 whole entry): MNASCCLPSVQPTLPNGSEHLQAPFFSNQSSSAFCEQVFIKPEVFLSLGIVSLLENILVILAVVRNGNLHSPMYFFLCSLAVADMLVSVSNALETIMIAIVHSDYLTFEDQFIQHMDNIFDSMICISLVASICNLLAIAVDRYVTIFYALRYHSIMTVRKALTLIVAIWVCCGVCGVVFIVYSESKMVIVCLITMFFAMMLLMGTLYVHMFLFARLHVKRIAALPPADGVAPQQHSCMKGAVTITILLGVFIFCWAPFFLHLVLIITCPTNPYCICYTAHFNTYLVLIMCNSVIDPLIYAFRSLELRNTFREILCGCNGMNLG

| SMILES | A10: inhibition of radioligand binding (Human opioid (ORL1); FlashPlate) | A2: inhibition of radioligand binding (Human κ-Opioid (KOP); filtration) | A4: inhibition of radioligand binding (Human Melanocortin (MC4); FlashPlate) | A6: inhibition of radioligand binding ([1]; [125I]-S36057, FlashPlate) | A3: inhibition of radioligand binding (Human Melanocortin (MC3); FlashPlate) | A7: inhibition of radioligand binding (Human μ-opioid (MOP); FlashPlate) | A1: inhibition of radioligand binding (Human δ-opioid (DOP); FlashPlate) | A9: inhibition of radioligand binding ([2]; FlashPlate) | A8: inhibition of radioligand binding (Human neurokinin (NK1); filtration) | A5: inhibition of radioligand binding (Human melanocortin (MC5); FlashPlate) | A11: inhibition of radioligand binding (Mouse urotensin (mUR2); FlashPlate) | A2: inhibition of radioligand binding (Human κ-Opioid (KOP); human KOP membranes) | A6: inhibition of radioligand binding [1, 3] | A3: inhibition of radioligand binding (Human Melanocortin (MC3); human MC3 membranes) | A1: inhibition of radioligand binding (Human δ-opioid (DOP); human DOP membranes) | A9: inhibition of radioligand binding ([2]; human NPY-Y1 membranes) | A8: inhibition of radioligand binding (Human neurokinin (NK1); human NK1 membranes) | A5: inhibition of radioligand binding (Human melanocortin (MC5); human MC5 membranes) | A11: inhibition of radioligand binding (Mouse urotensin (mUR2); mouse mUR2 membranes) | also measured |
| --- | --- | --- | --- | --- | --- | --- | --- | --- | --- | --- | --- | --- | --- | --- | --- | --- | --- | --- | --- | --- |
| CSC1OC(COCc2ccc3ccccc3c2)C(O)C(OCc2ccccc2)C1NC(=O)CCCN (stereo not shown) [compound 263] | − (“−” indicates less than 50% inhibition at 10 μM) | − (“−” indicates less than 50% inhibition at 10 μM) | − (“−” indicates less than 50% inhibition at 10 μM) | − (“−” indicates less than 50% inhibition at 10 μM) | − (“−” indicates less than 50% inhibition at 10 μM) | − (“−” indicates less than 50% inhibition at 10 μM) | − (“−” indicates less than 50% inhibition at 10 μM) | − (“−” indicates less than 50% inhibition at 10 μM) | + (“+” indicates greater than 50% inhibition at 10 μM) | − (“−” indicates less than 50% inhibition at 10 μM) | − (“−” indicates less than 50% inhibition at 10 μM) | – | – | – | – | – | – | – | – | – |
| NCCCC(=O)NC1C(OCc2ccc3ccccc3c2)OC(COCc2ccccc2)C(O)C1OCc1ccccc1 (stereo not shown) [compound 397] | – | – | – | – | – | – | – | – | – | – | – | − (“−” indicates less than 50% inhibition at 10 μM) | − (“−” indicates less than 50% inhibition at 10 μM) | − (“−” indicates less than 50% inhibition at 10 μM) | − (“−” indicates less than 50% inhibition at 10 μM) | − (“−” indicates less than 50% inhibition at 10 μM) | + (“+” indicates greater than 50% inhibition at 10 μM) | − (“−” indicates less than 50% inhibition at 10 μM) | − (“−” indicates less than 50% inhibition at 10 μM) | A10: inhibition of radioligand binding (Human opioid (ORL1); human ORL1 membranes, 10 µM): + (“+” indicates greater than 50% inhibition at 10 μM); A4: inhibition of radioligand binding (Human Melanocortin (MC4); human MC4 membranes, 10 µM): + (“+” indicates greater than 50% inhibition at 10 μM); A7: inhibition of radioligand binding (Human μ-opioid (MOP); human MOP membranes, 10 µM): − (“−” indicates less than 50% inhibition at 10 μM) |
| N=C(N)NCCCC(=O)NC1COC(COCc2ccc3ccccc3c2)C(O)C1OCc1ccc(Cl)cc1 (stereo not shown) [compound 541] | – | – | – | – | – | – | – | – | – | – | – | – | – | – | – | – | – | – | – | A10: inhibition of radioligand binding, human opioid (ORL1) (Human opioid (ORL1)): − (“−” indicates less than 50% inhibition at 10 μM); A2: inhibition of radioligand binding, human κ-opioid (KOP) (Human κ-Opioid (KOP)): − (“−” indicates less than 50% inhibition at 10 μM); A4: inhibition of radioligand binding, human melanocortin (MC4) (Human Melanocortin (MC4)): − (“−” indicates less than 50% inhibition at 10 μM); A6: inhibition of radioligand binding, human melanin-concentrating hormone (MCH1) ([1]; [125I]-S36057): − (“−” indicates less than 50% inhibition at 10 μM); A3: inhibition of radioligand binding, human melanocortin (MC3) (Human Melanocortin (MC3)): − (“−” indicates less than 50% inhibition at 10 μM); A7: inhibition of radioligand binding, human μ-opioid (MOP) (Human μ-opioid (MOP)): − (“−” indicates less than 50% inhibition at 10 μM); A1: inhibition of radioligand binding, human δ-opioid (DOP) (Human δ-opioid (DOP)): − (“−” indicates less than 50% inhibition at 10 μM); A9: inhibition of radioligand binding, human neuropeptide Y (NPY-Y1) [2]: − (“−” indicates less than 50% inhibition at 10 μM); A8: inhibition of radioligand binding, human neurokinin (NK1) (Human neurokinin (NK1)): + (“+” indicates greater than 50% inhibition at 10 μM); A5: inhibition of radioligand binding, human melanocortin (MC5) (Human melanocortin (MC5)): − (“−” indicates less than 50% inhibition at 10 μM); A11: inhibition of radioligand binding, mouse urotensin (mUR2) (Mouse urotensin (mUR2)): − (“−” indicates less than 50% inhibition at 10 μM) |
| COCC1OC(OCc2ccc3ccccc3c2)C(NC(=O)CCN)C(OCc2ccc3ccccc3c2)C1O (stereo not shown) [compound 248] | − (“−” indicates less than 50% inhibition at 10 μM) | − (“−” indicates less than 50% inhibition at 10 μM) | − (“−” indicates less than 50% inhibition at 10 μM) | − (“−” indicates less than 50% inhibition at 10 μM) | − (“−” indicates less than 50% inhibition at 10 μM) | − (“−” indicates less than 50% inhibition at 10 μM) | − (“−” indicates less than 50% inhibition at 10 μM) | − (“−” indicates less than 50% inhibition at 10 μM) | + (“+” indicates greater than 50% inhibition at 10 μM) | + (“+” indicates greater than 50% inhibition at 10 μM) | − (“−” indicates less than 50% inhibition at 10 μM) | – | – | – | – | – | – | – | – | – |
| N=C(N)NCCC(=O)NC1C(OCc2ccc(Cl)cc2)OC(COCc2ccc3ccccc3c2)C(O)C1OCc1ccc(-c2ccccc2)cc1 (stereo not shown) [compound 432] | – | – | – | – | – | – | – | – | – | – | – | − (“−” indicates less than 50% inhibition at 10 μM) | + (“+” indicates greater than 50% inhibition at 10 μM) | + (“+” indicates greater than 50% inhibition at 10 μM) | − (“−” indicates less than 50% inhibition at 10 μM) | − (“−” indicates less than 50% inhibition at 10 μM) | + (“+” indicates greater than 50% inhibition at 10 μM) | + (“+” indicates greater than 50% inhibition at 10 μM) | − (“−” indicates less than 50% inhibition at 10 μM) | A10: inhibition of radioligand binding (Human opioid (ORL1); human ORL1 membranes): − (“−” indicates less than 50% inhibition at 10 μM); A4: inhibition of radioligand binding (Human Melanocortin (MC4); human MC4 membranes): + (“+” indicates greater than 50% inhibition at 10 μM); A7: inhibition of radioligand binding (Human μ-opioid (MOP); human MOP membranes): − (“−” indicates less than 50% inhibition at 10 μM) |
